Source: PMC7176092, “Development of the first in vivo GPR17 ligand through an iterative drug discovery pipeline: A novel disease-modifying strategy for multiple sclerosis” (PLoS ONE, 2020)
“And” between values parts separate entries of the source, which are not always exact repeats. Identical values can stand only once. Like-named read-outs stand apart in the source and are kept apart here.

Tests used:
ADR1D = target: T1, ADR1D (Homo sapiens, UniProt P25100); experiment: Binding assay ADR1D; details: 100 nM
T1 construct: Eurofins Cerep (external service)
T1 sequence (P25100 1-572): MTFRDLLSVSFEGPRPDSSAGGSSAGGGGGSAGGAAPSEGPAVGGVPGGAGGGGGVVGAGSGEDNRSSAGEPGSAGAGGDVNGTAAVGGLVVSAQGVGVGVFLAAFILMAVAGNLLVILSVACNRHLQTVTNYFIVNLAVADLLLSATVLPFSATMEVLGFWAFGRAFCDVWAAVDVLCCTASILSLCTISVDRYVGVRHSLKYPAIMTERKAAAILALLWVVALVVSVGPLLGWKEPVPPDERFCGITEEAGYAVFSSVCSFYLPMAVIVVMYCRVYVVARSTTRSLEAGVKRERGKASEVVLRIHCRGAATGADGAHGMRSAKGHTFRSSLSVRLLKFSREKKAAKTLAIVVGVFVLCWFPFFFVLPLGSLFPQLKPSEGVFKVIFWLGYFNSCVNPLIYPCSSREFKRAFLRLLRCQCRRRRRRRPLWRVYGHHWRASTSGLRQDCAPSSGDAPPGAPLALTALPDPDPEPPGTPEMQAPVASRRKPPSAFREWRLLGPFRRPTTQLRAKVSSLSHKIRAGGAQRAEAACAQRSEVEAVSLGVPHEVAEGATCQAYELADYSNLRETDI

ADR2C = target: T2, ADR2C (Homo sapiens, UniProt P18825); experiment: Binding assay ADR2C; details: 100 nM
T2 construct: Eurofins Cerep (external service)
T2 sequence (P18825 1-462): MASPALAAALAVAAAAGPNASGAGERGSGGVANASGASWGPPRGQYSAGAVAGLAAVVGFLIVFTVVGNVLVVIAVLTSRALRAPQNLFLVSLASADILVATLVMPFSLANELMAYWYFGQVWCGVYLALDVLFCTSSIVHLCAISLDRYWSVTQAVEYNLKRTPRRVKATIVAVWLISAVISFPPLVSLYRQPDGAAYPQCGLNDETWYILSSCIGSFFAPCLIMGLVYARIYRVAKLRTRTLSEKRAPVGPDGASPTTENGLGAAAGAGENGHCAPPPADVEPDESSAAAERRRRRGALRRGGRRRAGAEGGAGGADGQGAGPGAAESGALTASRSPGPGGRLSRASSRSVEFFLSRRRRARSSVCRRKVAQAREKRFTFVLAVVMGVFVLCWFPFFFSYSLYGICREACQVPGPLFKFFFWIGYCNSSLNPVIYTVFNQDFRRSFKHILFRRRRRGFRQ

AT1 = target: T3, AT1 (Homo sapiens, UniProt P30556); experiment: Binding assay AT1; details: 100 nM
T3 construct: Eurofins Cerep (external service)
T3 sequence (P30556 1-359): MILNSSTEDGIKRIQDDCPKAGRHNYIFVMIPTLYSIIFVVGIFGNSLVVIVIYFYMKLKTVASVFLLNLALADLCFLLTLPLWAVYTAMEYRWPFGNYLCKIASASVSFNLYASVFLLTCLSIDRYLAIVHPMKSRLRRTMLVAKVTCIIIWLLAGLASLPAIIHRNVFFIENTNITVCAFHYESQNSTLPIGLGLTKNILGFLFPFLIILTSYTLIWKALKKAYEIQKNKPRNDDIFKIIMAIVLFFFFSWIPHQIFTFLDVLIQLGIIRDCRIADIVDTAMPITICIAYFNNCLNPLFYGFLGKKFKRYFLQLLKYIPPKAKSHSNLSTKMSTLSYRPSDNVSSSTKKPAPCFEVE

APJ = target: T4, APJ (Homo sapiens, UniProt P35414); experiment: Binding assay APJ; details: 100 nM
T4 construct: Eurofins Cerep (external service)
T4 sequence (P35414 1-380): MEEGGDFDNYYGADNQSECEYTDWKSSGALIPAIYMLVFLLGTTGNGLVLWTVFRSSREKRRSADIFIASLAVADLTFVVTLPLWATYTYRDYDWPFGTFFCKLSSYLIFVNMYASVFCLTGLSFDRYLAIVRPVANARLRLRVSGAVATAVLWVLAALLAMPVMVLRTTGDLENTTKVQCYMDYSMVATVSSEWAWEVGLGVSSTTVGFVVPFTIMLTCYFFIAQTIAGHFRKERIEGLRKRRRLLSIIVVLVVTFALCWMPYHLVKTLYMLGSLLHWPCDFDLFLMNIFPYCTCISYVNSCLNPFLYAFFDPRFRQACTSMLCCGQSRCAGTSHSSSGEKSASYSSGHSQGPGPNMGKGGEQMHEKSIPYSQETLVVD

CysLT1 = target: T5, CysLT1 (Homo sapiens, UniProt Q9Y271); experiment: Binding assay CysLT1; details: 100 nM
T5 construct: Eurofins Cerep (external service)
T5 sequence (Q9Y271 1-337): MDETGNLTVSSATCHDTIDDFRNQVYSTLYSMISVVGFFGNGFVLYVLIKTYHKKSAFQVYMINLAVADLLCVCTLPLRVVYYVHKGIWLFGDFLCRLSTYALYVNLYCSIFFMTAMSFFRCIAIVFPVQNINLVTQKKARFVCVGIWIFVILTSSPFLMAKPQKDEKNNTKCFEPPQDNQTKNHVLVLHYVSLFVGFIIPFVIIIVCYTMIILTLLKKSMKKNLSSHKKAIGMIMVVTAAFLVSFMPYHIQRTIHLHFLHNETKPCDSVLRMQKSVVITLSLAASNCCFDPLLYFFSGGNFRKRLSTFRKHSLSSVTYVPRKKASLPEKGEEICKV

CCR9 = target: T6, CCR9 (Homo sapiens, UniProt P51686); experiment: Cellular functional assay CCR9
T6 sequence (P51686 1-369): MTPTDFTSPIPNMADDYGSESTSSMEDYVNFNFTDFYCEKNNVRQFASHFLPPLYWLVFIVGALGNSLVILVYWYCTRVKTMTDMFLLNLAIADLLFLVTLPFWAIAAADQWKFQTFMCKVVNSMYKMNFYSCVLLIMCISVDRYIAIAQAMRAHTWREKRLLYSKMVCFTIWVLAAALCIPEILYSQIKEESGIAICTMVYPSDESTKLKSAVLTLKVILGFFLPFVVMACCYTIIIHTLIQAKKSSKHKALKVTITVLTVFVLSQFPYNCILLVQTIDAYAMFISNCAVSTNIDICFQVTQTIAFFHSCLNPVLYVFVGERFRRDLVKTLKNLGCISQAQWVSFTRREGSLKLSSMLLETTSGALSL

[1] = mean of 2, read-out: % Of control specific binding, Mean
[2] = read-out: % Inhibition of control specific binding
[3] = single replicates 1 and 2, 0.1 µM
[4] = single replicates 1 and 2, read-out: % Of control specific binding

- remaining activity at 0.1 µM (ADR1D; [1]): 101%
- inhibition at 0.1 µM (ADR1D; [2]): -1%
- % Of control specific binding (ADR1D; [3]): 90.2% and 111.5%
- remaining activity at 0.1 µM (ADR2C; [1]): 109%
- inhibition at 0.1 µM (ADR2C; [2]): -9%
- % Of control specific binding (ADR2C; [3]): 108.4%
- remaining activity at 0.1 µM (ADR2C; [4]): 109%
- remaining activity at 0.1 µM (AT1; [1]): 110%
- inhibition at 0.1 µM (AT1; [2]): -10%
- % Of control specific binding (AT1; [3]): 108.6%
- remaining activity at 0.1 µM (AT1; [4]): 112%
- remaining activity at 0.1 µM (APJ; [1]): 107%
- inhibition at 0.1 µM (APJ; [2]): -7%
- % Of control specific binding (APJ; [3]): 105.7%
- remaining activity at 0.1 µM (APJ; [4]): 108%
- remaining activity at 0.1 µM (CysLT1; [1]): 97.6%
- inhibition at 0.1 µM (CysLT1; [2]): 2%
- % Of control specific binding (CysLT1; [3]): 105.4%
- remaining activity at 0.1 µM (CysLT1; [4]): 89.7%
- Agonist Response (% of Control) (CCR9; antagonist effect, 100 nM, single replicates 1st and 2nd, 0.1 µM): 95.2%
- inhibition at 0.1 µM (CCR9; read-out: % Inhibition of control agonist response): 0.1%
- activity at 0.1 µM (CCR9; read-out: Agonist Response (% of Control), Mean, antagonist effect, 100 nM, mean of 2): 102%
- activity at 0.1 µM (CCR9; read-out: Agonist Response (% of Control), antagonist effect, 100 nM, single replicates 1st and 2nd): 108%
Compound: Cc1ccc(-c2nnc(SCC(=O)Nc3nccs3)[nH]2)cc1 [Compound 9]
